Laboratory results taken from patent publication US6740759B1, “Method for producing 2-alkyl-4-isothiazoline-3-one” (Chemicrea, Inc., priority 1999, dated 2004).

Assay: mutagenicity (Ames) testing of the crystals obtained
Type: cell-based
Design: key: A “+” signifies a positive adverse effect on the body; a “−” denotes no adverse effect
Settings: crystals obtained in the example
Description: The numbers in the table enclosed by parentheses in the column of solvents used in the reaction denote the molar fraction of the solubility of hydrogen chloride at normal temperature/pressure. The purity of the crystals obtained in Working Examples 1 to 7 and in the Comparative Example was analyzed by high-performance liquid chromatography and submitted to mutagenicity (Ames) testing. A “+” signifies a positive adverse effect on the body while a “−” denotes no adverse effect.

| SMILES | Ames test |
| --- | --- |
| Cn1sccc1=O [Working Example 3, 2-methyl-4-isothiazoline-3-one] | − |
| CCCCCCCCn1sccc1=O [Working Example 4, 2-n-octyl-4-isothiazoline-3-one] | − |
| O=c1ccsn1Cc1ccccc1 [Working Example 7, 2-benzyl-4-isothiazoline-3-one] | − |
